Source: patent US20230143604A1, “QW DOSING OF GIP RECEPTOR AGONIST PEPTIDE COMPOUNDS AND USES THEREOF” (TAKEDA PHARMACEUTICAL COMPANY LIMITED, priority 2020, published 2023)
Like-named read-outs stand apart in the source and are kept apart here. Starred links: 1 amine or outer side, 2 acyl side, 3 side chain; linkers in the order of their positions; H or OH if unused. Non-standard residues stand in square brackets, D forms with d. Residues, ends and D or L forms follow the SMILES beside them. Groups on a side chain read outwards from the residue. *: point of attachment. C18 diacid = O=C(O)CCCCCCCCCCCCCCCCC(=O)*; C17 diacid = O=C(O)CCCCCCCCCCCCCCCC(=O)*; γGlu = O=C(O)[C@H](CCC(=O)[*:2])N[*:1]; NMeY = CN[C@@H](Cc1ccc(O)cc1)C(=O)O; AEEA = NCCOCCOCC(=O)O; Aib = CC(C)(N)C(=O)O

Key:
[1] = Serum half-life and percentage remaining at 48 hours; assay type: in vitro ADME; details: human plasma, 500 nM peptide, 37° C.; for half-life at 500 nM: read-out: Serum t1/2 (converted)
Experimental: Human plasma (mixed gender: sodium heparin is used as anti-coagulant; pre-adjusted to pH 7.4—NB alternative species may be used) is spiked with each test peptide (500 nM) and incubated·cn=3) at 37° C. for 48 hours in a 5% CO2 environment. Aliquots are taken at 0. 1, 2, 4, 7, 24 and […] and pH adjusted to pH 3 with 20% formic acid prior to analysis. Appropriate positive control compounds will be incubated in parallel, in addition to a no plasma control, sampled at 0 and 8 hours. All samples will be treated with ice-cold acetonitrile/methanol (4:1 (v/v)) containing internal standard prior to centrifugation at 2000 g and 4° C. for 10 minutes and subjected to LC-MS/MS analysis.
The samples are analyzed by LC-MS/MS using a 6500 (or equivalent) triple quadrupole mass spectrometer (AB Sciex) coupled to an appropriate Liquid Chromatography (LC) system. Protein binding and stability values are determined via peak area ratios using multiple reaction monitoring (MRM) parameters following compound optimisation. Multiple reaction monitoring (MRM) is a highly sensitive method of targeted mass spectrometry (MS) that can be used to selectively detect and quantify peptides based on the screening of specified precursor peptide-to-fragment ion transitions.

[2] = Solubility in phosphate buffer pH 7.4
Summary of the method: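 3 mg of peptide treated with 100 μL portions of 200 mM phosphate buffer pH 7.4, sonicating/vortexing up to 1 min, with further buffer added until fully dissolved. Solubility then quantified by HPLC.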

[3] = Dog plasma protein binding (PPB); assay type: in vitro ADME; details: pH 7.4; fraction unbound; dog serum; read-out: Dog PPB (FUplasma)
Summary of the method: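 Dog serum replaced human serum, with the protocol and analysis otherwise the same as for human plasma protein binding. Values are reported as fraction unbound (Fu,plasma) expressed as a percentage.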

[4] = Human plasma protein binding (PPB); assay type: in vitro ADME
Summary of the method: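 Peptides spiked at 1000 nmol/L into pooled human K2-EDTA plasma adjusted to pH 7.4, incubated 30 min at 37 °C, then ultracentrifuged at ~450,000 g, 4 °C for 3 h. Fu derived from LC-MS/MS (MRM) peak area ratios, supernatant versus plasma.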

[5] = Pharmacokinetics in dog after IV and SC dosing; details: in vivo
Experimental: Pharmacokinetic (PK) were conducted in dog in order to determine the half-life after IV and SC dosing. The peptide was dissolved in 10% DMSO/0.09% Polysorbate/PBS pH 7.4 to a concentration of 3 nmol/mL and the animal were dose with a volume of 1 mL/kg SC or IV. Blood sample were collected at 0, 0.033, 0.083, 0.25, 0.5, 1, 2, 4, 6, 8, 12, 24, 48, 72, 96, 120, 168, 336 hours for IV dosing and 0.25, 0.5, 1, 2, 4, 6, 8, 12, 24, 48, 72, 96, 120, 168, 336 for SC dosing, EDTA-K2 was used as anticoagulant. The plasma concentration of the peptide was measured using LCMS. Allometric scaling of lipidated peptide pharmacokinetics including T1/2 and MRT is known in the art for rodent to dog and mini pig and to humans. […] See for example, Discovery and Development of Liraglutide and Semaglutide. Knudsen, L. B.; Lau, J. Frontiers in Endocrinology, 2019, vol 10, Article 155.

Dogs = assay type: in vivo; details: 10 nmol/kg s.c.
Experimental: Dogs are transferred to an observation cage (700 mm W×700 mm D×700 mm H [W×D×H], without food) on 1 day before each apomorphine challenge. The dogs are weighed by using an electronic balance then test peptide compounds and vehicle will be administrated via the subcutaneous route. Apomorphine is challenged at 8 hr after the administration and emetic events will be monitored for 1 h by video recording. The second apomorphine challenge will be 72 hr after the administration and emetic events will be recorded by the same protocol. Emesis symptoms are continuously recorded using a video camera and stored on a blue ray disc. Observation of symptoms include retching (a rhythmic contraction of the abdomen) and vomiting (vomiting behavior, including the elimination of vomitus or similar behavior). Besides, the combination of retching and vomiting is defined as emesis, and the number of episodes, latency (time elapsed from morphine administration until the onset of the first emesis symptom), duration (time elapsed between the onset of the first and final episodes of emesis), and frequency (number of animals showing emesis/number of experimental animals) of each of these symptoms is calculated. The latency in cases where emesis symptoms are not noted is taken as the maximum value (1 h for apomorphine challenge) at the end of observation. When the duration of the emesis symptoms is less than 1 min, the duration is recorded, for convenience, as 1 min.

C57BL/6J mice = assay: Oral glucose tolerance test (OGTT); assay type: in vivo; details: 3 nmol/kg s.c., 24 hours before glucose loading
Summary of the method: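 Peptide or vehicle given s.c. at 0.1, 0.3, 3 or 10 nmol/kg (peptide-dependent), 24 h before oral 50% dextrose at 5 ml/kg unless stated otherwise. Blood glucose read at 0, 15, 30 and 60 min. % inhibition = (1−(AUC cpd−AUC naïve)/(AUC veh−AUC naïve))×100.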

[6] = pH 7.4, aqueous buffer, pH 7.4 Phosphate Buffer - Solubility, 200 mM Phosphate buffer pH 7.4
[7] = pH 7.4, solubility in phosphate buffer at pH 7.4, 200 mM phosphate buffer pH 7.4

Compound	half-life at 500 nM ([1]; both sexes, pH 7.4) [h]	remaining at 48 h, 500 nM ([1]; both sexes, plasma (sodium heparin), pH 7.4, 48 hr) [%]	solubility [2, 6] [mg/mL]	solubility [2, 7] [mg/mL]	fraction unbound at 30 min, 1000 nmol/L [3]	% Remaining at 48 hr ([1]; 48 hr) [%]	fraction unbound at 30 min, 1000 nmol/L ([4]; both sexes, pH 7.4, fraction unbound, human plasma, 1000 nmol/L peptide, ultracentrifugation, read-out: Human PPB (FUplasma))	free unbound peptide in human plasma (in words) ([4]; judged for once per week (QW) dosing)	half-life ([5]; IV 3 nmol/kg, read-out: IV T½ (converted)) [h]	MRT last ([5]; SC 3 nmol/kg, read-out: SC MRT 0-last) [h]	% inhibition of emetic events at doses (nmol/kg) shown in dog apomorphine model (Dogs; after 8 hrs (upper))	% inhibition of emetic events at doses (nmol/kg) shown in dog apomorphine model (Dogs; after 72 hours (lower))	solubility ([2]; pH 7.4) [mg/mL]	solubility ([2]; pH 7.4, aqueous buffer) [mg/mL]	Oral Glucose Tolerance Test Percent decrease in blood glucose AUC (%) over 60 mins (C57BL/6J mice)
CC[C@H](C)[C@H](NC(=O)[C@H](CO)NC(=O)[C@H](Cc1ccc(O)cc1)NC(=O)[C@H](CC(=O)O)NC(=O)[C@H](CO)NC(=O)[C@@H](NC(=O)[C@H](Cc1ccccc1)NC(=O)[C@@H](NC(=O)CNC(=O)[C@H](CCC(=O)O)NC(=O)C(C)(C)NC(=O)[C@H](Cc1ccc(O)cc1)NC)[C@@H](C)O)[C@@H](C)CC)C(=O)N[C@@H](C)C(=O)N[C@@H](CC(C)C)C(=O)N[C@@H](CC(=O)O)C(=O)N[C@@H](CCCNC(=N)N)C(=O)N[C@@H](CCCCNC(=O)COCCOCCNC(=O)COCCOCCNC(=O)CC[C@H](NC(=O)CCCCCCCCCCCCCCCCC(=O)O)C(=O)O)C(=O)N[C@@H](Cc1c[nH]cn1)C(=O)N[C@@H](CCC(N)=O)C(=O)N[C@@H](CCC(N)=O)C(=O)N[C@@H](CC(N)=O)C(=O)N[C@@H](Cc1ccccc1)C(=O)N[C@H](C(=O)N[C@@H](CC(N)=O)C(=O)N[C@@H](Cc1c[nH]c2ccccc12)C(=O)N[C@@H](CC(C)C)C(=O)N[C@@H](CC(C)C)C(=O)N[C@@H](C)C(=O)N[C@@H](CCC(N)=O)C(=O)N[C@@H](CCCNC(=N)N)C(=O)N1CCC[C@H]1C(=O)N[C@@H](CO)C(=O)N[C@@H](CO)C(=O)NCC(=O)N[C@@H](C)C(=O)N1CCC[C@H]1C(=O)N1CCC[C@H]1C(=O)N1CCC[C@H]1C(=O)N[C@@H](CO)C(N)=O)C(C)C [Compound 4] (H-[NMeY][Aib]EGTFISDYSIALDRK([AEEA-AEEA-γGlu-C18 diacid])HQQNFVNWLLAQRPSSGAPPPS-NH2)	17.1	15	≥ 30	≥ 15	–	–	–	–	–	–	–	–	–	–	–
CC[C@H](C)[C@H](NC(=O)[C@H](Cc1ccccc1)NC(=O)[C@@H](NC(=O)CNC(=O)[C@H](CCC(=O)O)NC(=O)C(C)(C)NC(=O)[C@H](Cc1ccc(O)cc1)NC)[C@@H](C)O)C(=O)N[C@@H](CO)C(=O)N[C@@H](CC(=O)O)C(=O)N[C@@H](Cc1ccc(O)cc1)C(=O)N[C@@H](CO)C(=O)N[C@H](C(=O)NC(C)(C)C(=O)N[C@@H](CC(C)C)C(=O)N[C@@H](CC(=O)O)C(=O)N[C@@H](CCCNC(=N)N)C(=O)N[C@@H](CCCCNC(=O)COCCOCCNC(=O)COCCOCCNC(=O)CC[C@H](NC(=O)CC[C@H](NC(=O)CCCCCCCCCCCCCCCC(=O)O)C(=O)O)C(=O)O)C(=O)N[C@@H](C)C(=O)N[C@@H](CCC(N)=O)C(=O)NC(C)(C)C(=O)N[C@@H](CC(N)=O)C(=O)N[C@@H](Cc1ccccc1)C(=O)N[C@H](C(=O)N[C@@H](CC(N)=O)C(=O)N[C@@H](Cc1c[nH]c2ccccc12)C(=O)N[C@@H](CC(C)C)C(=O)N[C@@H](CC(C)C)C(=O)N[C@@H](C)C(=O)N[C@@H](CCC(N)=O)C(=O)N[C@@H](CCCNC(=N)N)C(=O)N1CCC[C@H]1C(=O)N[C@@H](CO)C(=O)N[C@@H](CO)C(=O)NCC(=O)N[C@@H](C)C(=O)N1CCC[C@H]1C(=O)N1CCC[C@H]1C(=O)N1CCC[C@H]1C(=O)N[C@@H](CO)C(N)=O)C(C)C)[C@@H](C)CC [Compound 15] (H-[NMeY][Aib]EGTFISDYSI[Aib]LDRK([AEEA-AEEA-γGlu-γGlu-C17 diacid])AQ[Aib]NFVNWLLAQRPSSGAPPPS-NH2)	> 48	–	≥ 30	≥ 15	0.0021	131.1	0.0017	optimum free unbound peptide	57	64	–	–	–	–	–
CC[C@H](C)[C@H](NC(=O)[C@H](CO)NC(=O)[C@H](Cc1ccc(O)cc1)NC(=O)[C@H](CC(=O)O)NC(=O)[C@H](CO)NC(=O)[C@@H](NC(=O)[C@H](Cc1ccccc1)NC(=O)[C@@H](NC(=O)CNC(=O)[C@H](CCC(=O)O)NC(=O)C(C)(C)NC(=O)[C@@H](N)Cc1ccc(O)cc1)[C@@H](C)O)[C@@H](C)CC)C(=O)N[C@@H](C)C(=O)N[C@@H](CCCCNC(=O)CNC(=O)CNC(=O)CNC(=O)CNC(=O)CNC(=O)CCCCCCCCCCCCCCCCC(=O)O)C(=O)N[C@@H](CC(=O)O)C(=O)N[C@@H](CCCNC(=N)N)C(=O)NC(C)(C)C(=O)N[C@@H](C)C(=O)N[C@@H](CCC(N)=O)C(=O)NC(C)(C)C(=O)N[C@@H](CC(=O)O)C(=O)N[C@@H](Cc1ccccc1)C(=O)N[C@H](C(=O)N[C@@H](CC(N)=O)C(=O)N[C@@H](Cc1c[nH]c2ccccc12)C(=O)N[C@@H](CC(C)C)C(=O)N[C@@H](CC(C)C)C(=O)N[C@@H](C)C(=O)N[C@@H](CCC(N)=O)C(=O)N[C@@H](CO)C(=O)N1CCC[C@H]1C(=O)NCC(=O)O)C(C)C [Compound 128]	–	–	–	–	–	–	–	–	–	–	56% (10 nmol/kg)	60% (10 nmol/kg)	≥ 15	≥ 30	57% (3 nmol/kg)
